{
  "source": "paper PMC12032302",
  "about": "“A20 attenuates oxidized self-DNA-mediated inflammation in acute kidney injury” (Signal Transduction and Targeted Therapy, 2025)",
  "key": {"[1]": {"tested_on": "AKI mice", "assay": "overall therapeutic effect in AKI mice", "type": "in vivo, mouse", "conditions": "A20-derived peptide (P-II), abstract", "description": "(§1) Aristolochic acid I sodium salt was dissolved in PBS to 1 mg/mL and injected intraperitoneally at a dose of 10 mg/kg (body weight) every 24 h for 3 days; cisplatin was dissolved in PBS to 1.5 mg/mL for one-time intraperitoneal 25 mg/kg injection; LPS (Sigma, Cat#L2630) was dissolved in PBS to 2.5 mg/mL for one-time intraperitoneal 25 mg/kg injection; deoxyribonuclease I (DNase I, Sigma, Cat#SLBV1446) was dissolved in PBS to 1 mg/mL and injected intraperitoneally at a dose of 10 mg/kg at 4 h before cisplatin or AA I injection and every 24 h after injection. Disulfiram (MedChemExpress, CAS:97-77-8) was diluted in corn oil to 12.5 mg/mL and injected 50 mg/kg intraperitoneally every 24 h after cisplatin or AA I administration. Cu(II) (Sigma, Cat#344419) was dissolved in PBS to 30 µg/mL and administered intraperitoneally 6 h before disulfiram at a dose of 0.15 mg/kg; TNF-α (Peprotech, Cat#315-01 A) was dissolved in PBS to 10 µg/mL and injected at 100 µg/kg once through the caudal vein 24 h before cisplatin injection. Metformin (Sigma, Cat#D150959) was dissolved in PBS to 5 mg/mL and injected intraperitoneally at a dose of 50 mg/kg 24 h before cisplatin or AA I injection and every 24 h after injection. MCC950 (MedChem Express, CAS:256373-96-3) was dissolved in PBS to 5 mg/mL and injected intraperitoneally at a dose of 50 mg/kg 12 h before cisplatin or AA I injection and every 12 h after injection; berberine (APExBIO, Cat#N1368) was dissolved in PBS to 5 mg/mL and 5 mg/kg injected intraperitoneally at 36, 24 and 12 h before cisplatin; A20-derived-peptide was dissolved in ddH2O to 3 mg/mL and injected intraperitoneally at a dose of 15 mg/kg 1 h before cisplatin. To supervise the effects of various treatments on survival time and rate, the mice were observed, and survival curves were generated. To investigate the specific mechanisms, whole blood was retrieved from the orbit, serum was separated through centrifugation on the 4th day, and the mice were then sacrificed by cervical dislocation. Mice were randomly assigned in experiments, while there was no blinding during the animal experiments."}, "[2]": {"tested_on": "HA-NEK7 Tri-MUT (K130, L132 and K140)", "assay": "biotin-P-II immunoprecipitation of HA-NEK7 Tri-MUT", "type": "binding, mouse", "conditions": "co-IP with biotin-labeled P-II, HEK293T lysates, overnight 4 °C, immunoblot; Fig. 7c", "description": "For biotin mediated immunoprecipitation, plasmids of HA-NEK7 (WT, K130A, L132R, K140A and Tri-MUT) were transfected into HEK293T cells for 2 days. Then, cells were lysed in MLB with inhibitor cocktail for 10 min at 4 °C. Cell lysates were collected and centrifuged at 12,000 rpm for 15 min at 4 °C and the supernatant was incubated with biotin conjunction peptide overnight at 4 °C. On the next day, streptavidin magnetic beads(Invitrogen, Lot#91221939) were added and incubated for 1 h. The immunocoprecipitated protein was then subjected to washing, heating, and western blot analysis.\nMouse HA-NEK7, FlAG-A20, and NLRP3 cDNA were amplified by employing standard PCR techniques from a mouse cDNA library. Subsequently, diverse cDNAs were inserted into mammalian expression vectors pcDNA3.1(+), pRK5, or pCMV6 with 3×Flag or 3×HA tags. For transient transfections, Lipofectamine 3000 was utilized according to the manufacturer’s instructions."}, "[3]": {"tested_on": "AKI mice", "assay": "survival of AKI mice", "type": "in vivo, mouse", "conditions": "Cis-treated mice; A20-derived peptide 15 mg/kg i.p., pretreated; n = 10 per group", "description": "as §1"}, "[4]": {"tested_on": "BMDMs", "assay": "ox-dsDNA-induced pyroptosis in BMDMs (GSDMD cleavage, IL-1β, IL-18, LDH release)", "type": "cell-based, mouse", "conditions": "ox-dsDNA90, 12 h pretreated P-II (0, 5, 10, 20 μM), n = 3, Supplementary Fig. 4f-i", "description": "Primary bone marrow-derived macrophages (BMDMs) were isolated from 6- to 8-week-old C57BL/6J male mice. The mice were sacrificed and soaked in 75% alcohol for 1–2 min. The femurs and tibias were removed and immersed in PBS containing 500 U/mL penicillin and […] streptomycin for 3 min. The marrow cavities were repeatedly rinsed with DMEM using a sterile 1 mL syringe. The cell suspension was collected and centrifuged at 300 × g for 10 min, and the supernatant was discarded. The cell pellet was resuspended in 5 mL red cell lysis buffer (Bio Sharp, Cat#BL503A) on ice for 5 min, followed by centrifugation, and the supernatant was removed. The cells were then resuspended in DMEM complete culture medium supplemented with 10% FBS and 30% L929 cell-conditioned medium as an induction factor.[51] Half of the medium was changed every other day for 5–7 days. The suspended cells were removed, and the adherent BMDMs were digested with trypsin and plated on a six-well plate at a density of 1 × 10^6 cells/well. […]\nTo measure the levels of CXCL10, IFN-β, IL-1β, and IL-18, mouse serum or cell culture medium was collected and measured by ELISA (NeoBioscience, China) according to the manufacturer’s instructions.\nTo measure the release of LDH, cell culture medium was collected and measured by CytoTox96@Non-Radio cytotoxicity Assay (Promega, REF#G1781) according to the manufacturer’s instructions."}},
  "note": "Entries after “also recorded” stand apart in the source; their conditions may differ. Residues, ends and D or L forms follow the SMILES beside them.",
  "data": [
    {"smiles": "CSCC[C@H](NC(=O)[C@H](Cc1ccc(O)cc1)NC(=O)[C@H](CCC(N)=O)NC(=O)[C@H](CS)NC(=O)[C@H](C)NC(=O)[C@H](C)NC(=O)[C@H](Cc1c[nH]cn1)NC(=O)[C@H](CCSC)NC(=O)[C@H](CC(C)C)NC(=O)[C@H](CS)NC(=O)[C@H](CC(N)=O)NC(=O)CNC(=O)[C@H](CC(=O)O)NC(=O)CNC(=O)[C@H](CC(N)=O)NC(=O)[C@@H](NC(=O)[C@H](CCCCN)NC(=O)[C@H](CC(C)C)NC(=O)[C@H](C)NC(=O)[C@@H](NC(=O)[C@H](CC(C)C)NC(=O)[C@@H](N)CCCCN)C(C)C)[C@@H](C)O)C(=O)N[C@@H](Cc1c[nH]c2ccccc12)C(=O)NCC(=O)N[C@H](C(=O)N[C@@H](CCC(N)=O)C(=O)N[C@@H](CC(=O)O)C(=O)N[C@H](C(=O)N[C@@H](CC(=O)O)C(=O)O)[C@@H](C)O)C(C)C", "note": "[P-II] (H-KLVALKTNGDGNCLMHAACQYMWGVQDTD-OH; N-terminus and C-terminus assumed)", "values": [
      {"measurement": "survival and renal injury of AKI mice", "setting": "[1]", "result": "improves the survival and renal injury of AKI mice"},
      {"measurement": "binding of NEK7 and P-II, effect of simultaneous mutation of three residues", "setting": "[2]", "result": "significantly attenuate the binding of NEK7 and P-II"},
      {"measurement": "survival", "setting": "[3]", "result": "improved the survival of mice"},
      {"measurement": "inhibition of ox-DNA-induced pyroptosis", "setting": "[4]", "result": "significantly alleviates ox-dsDNA-induced pyroptosis; also recorded: inhibiting ox-self-DNA-induced pyroptosis"}
    ]}
  ]
}
